# Laboratory results: US10774053B2, “HIV protease inhibitors” (Gilead Sciences, Inc., priority 2017, dated 2020)
# System: HIV-1 (IIIB) in MT-4 cells
# Assay: microbe, parasite or virus in culture
# Assay type: cell-based
# Settings: Human immunodeficiency virus 1, IIIB, MT4, MT-4 cells, HIV-1; read-out: MT4 EC50
row,Compound,EC50
1,CC(C)(C)C[C@]1(c2cc(F)cc(F)c2)NC(=N)N([C@H](COC(=O)NC2(C)CC2)c2ccc(Cl)c(-n3cc(-c4ccccn4)cn3)c2)C1=O [Compound 256],554 nM
2,CC(C)(C)C[C@]1(c2cc(F)cc(F)c2)NC(=N)N([C@H](COC(=O)NC2(C)CC2)c2ccc(Cl)c(-n3cccn3)c2)C1=O [Compound 257],4180 nM
3,CC(C)(C)C[C@]1(c2ccc(-c3cnn(C(F)F)c3)cc2)NC(=N)N([C@H](COC(=O)NC2(C)CC2)c2ccc(Cl)c(-n3cccn3)c2)C1=O [Compound 258],28.5 nM
4,CCC1(NC(=O)OC[C@H](c2ccc(Cl)c(-n3cccn3)c2)N2C(=N)N[C@](CC(C)(C)C)(c3ccc(-c4cnn(C(F)F)c4)cc3)C2=O)CC1 [Compound 259],65.4 nM
5,CC(C)(C)C[C@]1(c2ccc(-c3cnn(C(F)F)c3)cc2)NC(=N)N([C@H](COC(=O)NC2(C)CC2)c2ccc(Cl)c(-n3ccnn3)c2)C1=O [Compound 260],32.4 nM
6,CC(C)(C)C[C@]1(c2ccc(-c3cnn(C(F)F)c3)cc2)NC(=N)N([C@H](COC(=O)N2CC(F)(F)C2)c2ccc(Cl)c(-n3cccn3)c2)C1=O [Compound 261],29 nM
7,CC1(NC(=O)OC[C@H](c2ccc(Cl)c(-n3cccn3)c2)N2C(=N)N[C@](CC(C)(C)C(F)(F)F)(c3cc(F)cc(F)c3)C2=O)CC1 [Compound 262],1800 nM
8,CC1(NC(=O)OC[C@H](c2ccc(Cl)c(-n3cccn3)c2)N2C(=N)N[C@](CC(C)(C)C(F)(F)F)(c3ccc(Cl)cc3)C2=O)CC1 [Compound 263],748 nM
9,CC(C)(C)C[C@]1(c2ccc(-c3cnn(C(F)F)c3)cc2)NC(=N)N([C@H](COC(=O)NC2(C)CC2)c2ccc(Cl)c(-n3cc(C4CC4)cn3)c2)C1=O [Compound 264],228 nM
10,CC(C)(C)C[C@]1(c2ccc(-c3cnn(C(F)F)c3)cc2)NC(=N)N([C@H](COC(=O)NC2(C)CC2)c2ccc(Cl)c(-n3cc(C#N)cn3)c2)C1=O [Compound 265],17.9 nM
11,CC(C)(C)C[C@]1(c2ccc(-c3cnn(C(F)F)c3)cc2)NC(=N)N([C@H](COC(=O)NC2(C)CC2)c2ccc(Cl)c(-n3cnnn3)c2)C1=O [Compound 266],57.4 nM
12,N=C1N[C@](C#CC2CC2)(c2ccc(-c3cnn(C(F)F)c3)cc2)C(=O)N1[C@H](COC(=O)NC1(C(F)(F)F)CC1)c1ccc(Cl)c(-n2cccn2)c1 [Compound 267],243 nM
13,CC(C)(C)C[C@]1(c2ccc(-c3cnn(C(F)F)c3)cc2)NC(=N)N([C@H](COC(=O)NC2(C(F)(F)F)CC2)c2ccc(Cl)c(-n3nccn3)c2)C1=O [Compound 268],37.8 nM
14,CC(C)(C)C[C@]1(c2ccc(-c3cnn(C(F)F)c3)cc2)NC(=N)N([C@H](COC(=O)NC2(C)CC2)c2cc(-n3cncn3)c(Cl)cn2)C1=O [Compound 269],62.4 nM
15,CC(C)(C)C[C@]1(c2ccc(-c3ccc(F)cn3)cc2)NC(=N)N([C@H](COC(=O)NC2(C(F)(F)F)CC2)c2ccc(Cl)c(-n3ncnc3C(F)F)c2)C1=O [Compound 274],11.1 nM
16,CC(C)(C)C[C@]1(c2ccc(-c3ncc(F)cn3)cc2)NC(=N)N([C@H](COC(=O)NC2(C(F)(F)F)CC2)c2ccc(Cl)c(-n3ncnc3C(F)F)c2)C1=O [Compound 275],12.8 nM
17,CC(C)(C)C[C@]1(c2ccc(-c3ccsn3)cc2)NC(=N)N([C@H](COC(=O)NC2(C(F)(F)F)CC2)c2ccc(Cl)c(-n3ncnc3C(F)F)c2)C1=O [Compound 276],12.5 nM
18,CC(C)(C)C[C@]1(c2ccc(-c3cncs3)cc2)NC(=N)N([C@H](COC(=O)NC2(C(F)(F)F)CC2)c2ccc(Cl)c(-n3ncnc3C(F)F)c2)C1=O [Compound 277],6.99 nM
19,CC(C)(C)C[C@]1(c2ccc(-c3ccc(C(F)F)nc3)cc2F)NC(=N)N([C@H](COC(=O)NC2(C(F)(F)F)CC2)c2ccc(Cl)c(-n3ncnc3C(F)F)c2)C1=O [Compound 279],23.5 nM
20,CC(C)(C)C[C@]1(c2ccc(C#N)cc2)NC(=N)N([C@H](COC(=O)NC2(C(F)(F)F)CC2)c2ccc(Cl)c(-n3ncnc3C(F)F)c2)C1=O [Compound 280],20.7 nM
21,CC(C)(C)C[C@]1(c2ccc(-c3ccc(C#N)cc3)cc2)NC(=N)N([C@H](COC(=O)NC2(C(F)(F)F)CC2)c2ccc(Cl)c(-n3ncnc3C(F)F)c2)C1=O [Compound 281],22.2 nM
22,CC(C)(C)C[C@]1(c2ccc(-c3ccc(OC(F)F)cc3)cc2)NC(=N)N([C@H](COC(=O)NC2(C(F)(F)F)CC2)c2ccc(Cl)c(-n3ncnc3C(F)F)c2)C1=O [Compound 282],62 nM
23,CC(C)(C)C[C@]1(c2ccc(-c3ccc4c(c3)OC(F)(F)O4)cc2)NC(=N)N([C@H](COC(=O)NC2(C(F)(F)F)CC2)c2ccc(Cl)c(-n3ncnc3C(F)F)c2)C1=O [Compound 283],113 nM
24,CC(C)(C)C[C@]1(c2ccc(-c3ncns3)cc2F)NC(=N)N([C@H](COC(=O)NC2(C(F)(F)F)CC2)c2ccc(Cl)c(-n3ncnc3C(F)F)c2)C1=O [Compound 284],11.4 nM
25,CC(C)(C)C[C@]1(c2ccc(-c3ccn(C(F)F)n3)cc2F)NC(=N)N([C@H](COC(=O)NC2(C(F)(F)F)CC2)c2ccc(Cl)c(-n3ncnc3C(F)F)c2)C1=O [Compound 285],16.8 nM

row,Compound,EC50
1,CC(C)(C)C[C@]1(c2ccc(-c3cnn(C(F)F)c3)cc2)NC(=N)N([C@H](COC(=O)N[C@@H]2C[C@@H]2F)c2ccc(Cl)c(-n3ncnc3C(F)F)c2)C1=O [Compound 287],7.55 nM
2,CC(C)(C)C[C@]1(c2ccc(-c3cnn(C(F)F)c3)cc2)NC(=N)N([C@H](COC(=O)N[C@H]2C[C@H]2F)c2ccc(Cl)c(-n3ncnc3C(F)F)c2)C1=O [Compound 288],6.07 nM
3,CC(C)(C)C[C@]1(c2ccc(-c3cnn(S(C)(=O)=O)c3)cc2)NC(=N)N([C@H](COC(=O)NC2(C(F)(F)F)CC2)c2ccc(Cl)c(-n3ncnc3C(F)F)c2)C1=O [Compound 292],14.2 nM
4,CC(C)(C)C[C@]1(c2ccc(-c3cnn(S(C)(=O)=O)c3)c(F)c2)NC(=N)N([C@H](COC(=O)NC2CC2(F)F)c2ccc(Cl)c(-n3ncnc3C(F)F)c2)C1=O (stereo partly shown) [Compound 293],10.5 nM
5,CC(C)(C)C[C@]1(c2ccc(-c3cnn(C4CC4)c3)cc2)NC(=N)N([C@H](COC(=O)N[C@H]2CC2(F)F)c2ccc(Cl)c(-n3ncnc3C(F)F)c2)C1=O [Compound 294],8.74 nM
6,Cn1ccc(-c2ccc([C@@]3(CC(C)(C)C)NC(=N)N([C@H](COC(=O)N[C@H]4CC4(F)F)c4ccc(Cl)c(-n5ncnc5C(F)F)c4)C3=O)cc2)n1 [Compound 296],8.57 nM
7,Cn1ccc(-c2ccc([C@@]3(CC(C)(C)C)NC(=N)N([C@H](COC(=O)NCC(F)(F)F)c4ccc(Cl)c(-n5ncnc5C(F)F)c4)C3=O)cc2)n1 [Compound 297],10.3 nM
8,CC(C)(C)C[C@]1(c2ccc(-c3cnn(C4CC4)c3)c(F)c2)NC(=N)N([C@H](COC(=O)NC2CC2(F)F)c2ccc(Cl)c(-n3ncnc3C(F)F)c2)C1=O (stereo partly shown) [Compound 298],7.83 nM
9,CC(C)(C)C[C@]1(c2ccc(-c3cnn(C(F)F)c3)c(F)c2)NC(=N)N([C@H](COC(=O)NCC(C)(F)F)c2ccc(Cl)c(-n3ncnc3C(F)F)c2)C1=O [Compound 299],13 nM
10,CC(C)(C)C[C@]1(c2ccc(-c3cnn(S(C)(=O)=O)c3)c(F)c2)NC(=N)N([C@H](COC(=O)NCC(F)(F)F)c2ccc(Cl)c(-n3ncnc3C(F)F)c2)C1=O [Compound 300],12.5 nM
11,CC(C)(C)C[C@]1(c2ccc(-c3cnn(S(=O)(=O)C4CC4)c3)c(F)c2)NC(=N)N([C@H](COC(=O)NCC(F)(F)F)c2ccc(Cl)c(-n3ncnc3C(F)F)c2)C1=O [Compound 302],18.1 nM
12,CC(C)(C)C[C@]1(c2ccc(-c3cnn(C4CC4)c3)c(F)c2)NC(=N)N([C@H](COC(=O)NC2(C(F)(F)F)CC2)c2ccc(Cl)c(-n3ncnc3C(F)F)c2)C1=O [Compound 306],10.9 nM
13,CC(C)(C)C[C@]1(c2ccc(-c3cnn(C4CC4)c3)c(F)c2)NC(=N)N([C@H](COC(=O)NCC(F)(F)F)c2ccc(Cl)c(-n3ncnc3C(F)F)c2)C1=O [Compound 307],12.7 nM
14,CC(C)(C)C[C@]1(c2ccc(-n3nccn3)c(F)c2)NC(=N)N([C@H](COC(=O)NC2(C(F)(F)F)CC2)c2ccc(Cl)c(-n3ncnc3C(F)F)c2)C1=O [Compound 309],13.4 nM
15,C[C@@H](NC(=O)OC[C@H](c1ccc(Cl)c(-n2ncnc2C(F)F)c1)N1C(=N)N[C@](CC(C)(C)C)(c2ccc(-c3cnn(C(F)F)c3)cc2)C1=O)C(F)(F)F [Compound 310],20.3 nM
16,CC(C)(C)C[C@]1(c2ccc(-c3ccc(S(C)(=O)=O)cc3)c(F)c2)NC(=N)N([C@H](COC(=O)NC2(C(F)(F)F)CC2)c2ccc(Cl)c(-n3ncnc3C(F)F)c2)C1=O [Compound 313],19.5 nM
17,C[C@H](NC(=O)OC[C@H](c1ccc(Cl)c(-n2ncnc2C(F)F)c1)N1C(=N)N[C@](CC(C)(C)C)(c2ccc(-c3cnn(C4CC4)c3)c(F)c2)C1=O)C(F)(F)F [Compound 314],8.19 nM
18,C[C@H](NC(=O)OC[C@H](c1ccc(Cl)c(-n2ncnc2C(F)F)c1)N1C(=N)N[C@](CC(C)(C)C)(c2ccc(-c3cnn(C4CC4)c3)cc2F)C1=O)C(F)(F)F [Compound 315],9.97 nM
19,CC(C)(C)C[C@]1(c2ccc(-c3cnn(C4CC4)c3)c(Cl)c2)NC(=N)N([C@H](COC(=O)NC2(C(F)(F)F)CC2)c2ccc(Cl)c(-n3ncnc3C(F)F)c2)C1=O [Compound 316],13.3 nM
20,CC(C)(C)C[C@]1(c2ccc(-c3cn(C4CC4)nc3F)cc2)NC(=N)N([C@H](COC(=O)NC2(C(F)(F)F)CC2)c2ccc(Cl)c(-n3ncnc3C(F)F)c2)C1=O [Compound 318],13.2 nM
21,CC(C)(C)C[C@]1(c2ccc(-c3cnn(C4CC4)c3)cc2)NC(=N)N([C@H](COC(=O)NC2(C(F)(F)F)CC2)c2ccc(Cl)c(-n3cncn3)c2)C1=O [Compound 319],17.8 nM
22,CC(C)(C)C[C@]1(c2ccc(-c3ccccn3)cc2)NC(=N)N([C@H](COC(=O)NC2(C(F)(F)F)CC2)c2ccc(Cl)c(-n3cncn3)c2)C1=O [Compound 320],22.5 nM
23,CC(C)(C)C[C@]1(c2ccc(-c3ccns3)cc2)NC(=N)N([C@H](COC(=O)NC2(C(F)(F)F)CC2)c2ccc(Cl)c(-n3cncn3)c2)C1=O [Compound 321],20.8 nM
24,CC(C)(C)C[C@]1(c2ccc(-c3ccsn3)cc2)NC(=N)N([C@H](COC(=O)NC2(C(F)(F)F)CC2)c2cccc(-n3ncnc3C(F)F)c2)C1=O [Compound 322],39 nM
